Results published in ChEMBL document CHEMBL1155340, “Discovery of a novel azepine series of potent and selective 5-HT2C agonists as potential treatments for urinary incontinence” (Bioorg Med Chem Lett, 2009).

How the values were obtained:
[1] = target: T1, 5-hydroxytryptamine receptor 2C (Homo sapiens) (UniProt P28335); experiment: Agonist activity at human recombinant 5HT2C receptor expressed in CHO K1 cells assessed as induction of calcium mobilization by FLIPR assay relative to 5-HT; format: functional, cell-based
T1 sequence (whole entry): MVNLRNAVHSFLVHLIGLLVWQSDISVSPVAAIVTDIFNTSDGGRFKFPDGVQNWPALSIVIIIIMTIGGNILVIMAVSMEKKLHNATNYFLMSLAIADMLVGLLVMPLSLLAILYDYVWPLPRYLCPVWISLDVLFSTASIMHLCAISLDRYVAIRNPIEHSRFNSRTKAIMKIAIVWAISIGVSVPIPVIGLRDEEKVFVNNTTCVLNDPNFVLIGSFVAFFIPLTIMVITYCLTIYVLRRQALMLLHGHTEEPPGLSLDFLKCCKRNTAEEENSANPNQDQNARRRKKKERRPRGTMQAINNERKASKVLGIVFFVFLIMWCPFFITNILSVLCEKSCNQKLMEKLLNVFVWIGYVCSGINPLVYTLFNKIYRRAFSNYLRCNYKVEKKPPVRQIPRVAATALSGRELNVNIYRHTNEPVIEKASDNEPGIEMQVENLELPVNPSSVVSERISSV

[2] = target: T2, 5-hydroxytryptamine receptor 2C (Homo sapiens, UniProt P28335)
T2 sequence (P28335 whole entry): T1 sequence (whole entry)

[3] = target: T3, 5-hydroxytryptamine receptor 2B (Homo sapiens, UniProt P41595)
MDR1 = experiment: in vitro; settings: dog, MDCK-MDR1
Description: Apparent membrane permeability across apical to basolateral side of MDR1 expressing MDCK cells

in vitro = settings: human, liver microsomes
Description: (§1) Metabolic stability in human liver microsomes assessed per mg of protein

physchem = settings: buffer, pH 7.4
Description: Lipophilicity, log D at pH 7.4

[4] = target: T3, 5-hydroxytryptamine receptor 2B; experiment: Agonist activity at human recombinant 5HT2B receptor assessed as induction of calcium mobilization by FLIPR assay relative to 5-HT; format: functional
[5] = target: T3, 5-hydroxytryptamine receptor 2B; experiment: Agonist activity at human recombinant 5HT2B receptor assessed as induction of calcium mobilization at 10 uM by FLIPR assay relative to 5-HT; format: functional
[6] = target: 5-hydroxytryptamine receptor 2A (Canis lupus familiaris, UniProt O46635); experiment: Agonist activity at 5-HT2A receptor in dog bladder strip; format: functional
[7] = target: Voltage-gated inwardly rectifying potassium channel KCNH2 (Homo sapiens, UniProt Q12809); experiment: Displacement of dofrtilide from human ERG channel
[8] = target: T4, 5-hydroxytryptamine receptor 3A (Homo sapiens, UniProt P46098); experiment: Inhibition of 5HT3 receptor
T4 sequence (P46098 whole entry): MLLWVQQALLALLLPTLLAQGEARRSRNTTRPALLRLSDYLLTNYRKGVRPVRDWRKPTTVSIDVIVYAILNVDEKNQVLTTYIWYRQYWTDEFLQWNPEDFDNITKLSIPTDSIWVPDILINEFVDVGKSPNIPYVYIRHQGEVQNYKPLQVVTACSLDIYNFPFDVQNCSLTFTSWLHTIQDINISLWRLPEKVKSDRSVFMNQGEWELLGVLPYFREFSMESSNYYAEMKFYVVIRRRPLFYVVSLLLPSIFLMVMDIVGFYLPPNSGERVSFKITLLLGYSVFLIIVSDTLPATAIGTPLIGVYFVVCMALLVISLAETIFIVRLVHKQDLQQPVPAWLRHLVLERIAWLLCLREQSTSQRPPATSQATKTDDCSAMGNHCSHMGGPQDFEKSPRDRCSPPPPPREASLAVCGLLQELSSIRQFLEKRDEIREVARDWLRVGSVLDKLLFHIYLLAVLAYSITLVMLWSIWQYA

[9] = target: Beta-2 adrenergic receptor (Homo sapiens, UniProt P07550); experiment: Inhibition of beta2 adrenergic receptor
[10] = target: Muscarinic acetylcholine receptor M3 (Homo sapiens, UniProt P20309); experiment: Inhibition of muscarinic receptor 3
Cytochrome P450 2D6 = Cytochrome P450 2D6 (Homo sapiens, UniProt P10635); experiment: Inhibition of CYP2D6; format: ADME
Cytochrome P450 3A4 = Cytochrome P450 3A4 (Homo sapiens, UniProt P08684); experiment: Inhibition of CYP3A4; format: ADME
Cytochrome P450 2C9 = Cytochrome P450 2C9 (Homo sapiens, UniProt P11712); experiment: Inhibition of CYP2C9; format: ADME
Cytochrome P450 1A2 = target: T5, Cytochrome P450 1A2 (Homo sapiens, UniProt P05177); experiment: Inhibition of CYP1A2; format: ADME
T5 sequence (P05177 whole entry): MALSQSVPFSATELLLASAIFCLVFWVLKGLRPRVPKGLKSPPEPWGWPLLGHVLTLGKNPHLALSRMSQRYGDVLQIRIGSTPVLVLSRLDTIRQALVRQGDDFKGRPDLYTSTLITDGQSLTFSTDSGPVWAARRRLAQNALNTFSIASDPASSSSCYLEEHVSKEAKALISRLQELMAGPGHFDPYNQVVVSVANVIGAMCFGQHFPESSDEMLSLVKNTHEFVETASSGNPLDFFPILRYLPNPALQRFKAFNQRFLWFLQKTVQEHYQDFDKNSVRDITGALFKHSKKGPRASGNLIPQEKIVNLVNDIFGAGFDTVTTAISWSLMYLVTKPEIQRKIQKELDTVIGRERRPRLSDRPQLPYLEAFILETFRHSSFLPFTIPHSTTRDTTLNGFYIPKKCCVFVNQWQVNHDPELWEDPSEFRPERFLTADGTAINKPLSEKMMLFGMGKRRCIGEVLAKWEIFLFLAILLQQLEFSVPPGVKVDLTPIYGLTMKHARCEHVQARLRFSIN

Canis familiaris = experiment: Increase of peak urethral pressure in dog model of stress incontinence at 150 ug/kg, iv after 60 mins; format: functional, Canis lupus familiaris, Urethra
[11] = Plasma concentration in dog model of stress incontinence at 150 ug/kg, iv after 60 mins; format: ADME, organism-based, Canis lupus familiaris; settings: 0.15 mg/kg
[12] = target: 5-hydroxytryptamine receptor 2A (Canis lupus familiaris) (UniProt O46635); experiment: Agonist activity at 5-HT2A receptor in dog bladder strip relative to 5-HT; format: functional
Homo sapiens = organism: Homo sapiens; experiment: Selectivity ratio of EC50 for human recombinant 5HT2B receptor to EC50 for human recombinant 5HT2A receptor
Liver microsomes = settings: human
Description: as §1

T3 sequence (P41595 whole entry): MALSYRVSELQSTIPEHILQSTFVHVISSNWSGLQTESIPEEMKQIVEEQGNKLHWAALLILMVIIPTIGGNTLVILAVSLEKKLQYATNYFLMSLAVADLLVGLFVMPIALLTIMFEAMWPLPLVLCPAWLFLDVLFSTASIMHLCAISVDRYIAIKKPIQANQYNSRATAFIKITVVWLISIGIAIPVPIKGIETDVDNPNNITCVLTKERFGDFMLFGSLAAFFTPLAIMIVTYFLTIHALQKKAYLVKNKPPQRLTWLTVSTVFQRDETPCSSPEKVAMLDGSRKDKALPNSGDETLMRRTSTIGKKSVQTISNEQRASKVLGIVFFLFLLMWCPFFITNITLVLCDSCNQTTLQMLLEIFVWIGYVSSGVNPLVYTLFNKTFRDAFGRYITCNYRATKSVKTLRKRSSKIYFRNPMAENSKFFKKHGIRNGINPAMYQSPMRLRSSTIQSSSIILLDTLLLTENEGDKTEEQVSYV
Sequence of 5-hydroxytryptamine receptor 2A (O46635 whole entry): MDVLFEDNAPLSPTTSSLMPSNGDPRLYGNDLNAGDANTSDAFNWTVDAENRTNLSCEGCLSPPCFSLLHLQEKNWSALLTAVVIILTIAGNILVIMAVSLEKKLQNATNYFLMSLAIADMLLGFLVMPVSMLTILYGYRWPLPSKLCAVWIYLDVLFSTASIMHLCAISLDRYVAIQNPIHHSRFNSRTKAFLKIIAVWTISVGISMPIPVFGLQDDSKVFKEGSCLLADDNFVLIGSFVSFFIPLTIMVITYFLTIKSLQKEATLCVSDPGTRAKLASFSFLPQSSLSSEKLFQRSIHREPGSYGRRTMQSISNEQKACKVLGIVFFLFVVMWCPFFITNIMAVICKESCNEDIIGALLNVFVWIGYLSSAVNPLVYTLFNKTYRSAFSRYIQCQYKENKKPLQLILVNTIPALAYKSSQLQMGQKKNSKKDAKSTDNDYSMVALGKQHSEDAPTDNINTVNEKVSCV
Sequence of 5-hydroxytryptamine receptor 2A (Canis lupus familiaris) (O46635 whole entry): as above
Sequence of Muscarinic acetylcholine receptor M3 (P20309 whole entry): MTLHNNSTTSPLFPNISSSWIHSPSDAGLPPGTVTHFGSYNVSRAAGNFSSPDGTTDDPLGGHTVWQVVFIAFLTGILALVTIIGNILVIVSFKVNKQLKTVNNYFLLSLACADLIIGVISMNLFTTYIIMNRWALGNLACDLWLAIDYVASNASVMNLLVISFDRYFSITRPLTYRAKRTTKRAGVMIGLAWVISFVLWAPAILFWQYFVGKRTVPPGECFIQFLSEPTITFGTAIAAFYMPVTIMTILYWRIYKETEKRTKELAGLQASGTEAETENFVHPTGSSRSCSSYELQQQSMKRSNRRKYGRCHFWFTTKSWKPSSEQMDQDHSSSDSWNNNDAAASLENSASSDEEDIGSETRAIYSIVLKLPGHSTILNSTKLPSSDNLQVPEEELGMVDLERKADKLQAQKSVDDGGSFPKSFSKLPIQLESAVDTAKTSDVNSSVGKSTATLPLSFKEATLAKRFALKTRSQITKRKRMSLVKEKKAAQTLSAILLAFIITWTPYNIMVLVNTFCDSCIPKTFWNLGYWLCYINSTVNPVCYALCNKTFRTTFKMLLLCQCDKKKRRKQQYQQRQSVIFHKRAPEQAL
Sequence of Cytochrome P450 2D6 (P10635 whole entry): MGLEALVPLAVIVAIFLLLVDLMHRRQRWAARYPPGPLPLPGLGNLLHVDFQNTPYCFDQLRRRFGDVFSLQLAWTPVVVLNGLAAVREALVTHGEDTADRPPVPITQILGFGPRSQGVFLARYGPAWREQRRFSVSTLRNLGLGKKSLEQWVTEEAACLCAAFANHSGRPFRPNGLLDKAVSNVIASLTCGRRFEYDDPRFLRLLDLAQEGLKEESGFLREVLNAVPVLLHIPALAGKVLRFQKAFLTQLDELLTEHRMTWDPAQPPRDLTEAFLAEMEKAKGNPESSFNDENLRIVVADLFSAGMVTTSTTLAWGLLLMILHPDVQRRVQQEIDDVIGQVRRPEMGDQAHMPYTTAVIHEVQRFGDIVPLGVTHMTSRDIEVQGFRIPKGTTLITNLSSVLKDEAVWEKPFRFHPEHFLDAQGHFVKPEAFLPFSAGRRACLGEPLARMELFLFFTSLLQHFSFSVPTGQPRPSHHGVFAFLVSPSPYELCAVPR
Sequence of Cytochrome P450 3A4 (P08684 whole entry): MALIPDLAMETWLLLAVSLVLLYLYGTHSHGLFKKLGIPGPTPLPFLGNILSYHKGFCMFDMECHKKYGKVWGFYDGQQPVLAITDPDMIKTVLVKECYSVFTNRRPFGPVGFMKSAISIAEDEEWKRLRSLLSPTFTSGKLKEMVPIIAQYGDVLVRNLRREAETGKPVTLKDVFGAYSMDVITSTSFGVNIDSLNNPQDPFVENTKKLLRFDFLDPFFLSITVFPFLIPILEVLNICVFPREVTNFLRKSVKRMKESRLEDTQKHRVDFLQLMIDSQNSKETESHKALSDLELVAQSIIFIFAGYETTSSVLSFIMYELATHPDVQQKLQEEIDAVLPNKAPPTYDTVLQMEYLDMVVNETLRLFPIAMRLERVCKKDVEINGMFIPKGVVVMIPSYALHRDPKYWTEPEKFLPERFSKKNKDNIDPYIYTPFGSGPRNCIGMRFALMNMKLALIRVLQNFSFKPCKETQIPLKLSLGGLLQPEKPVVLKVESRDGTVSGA
Sequence of Beta-2 adrenergic receptor (P07550 whole entry): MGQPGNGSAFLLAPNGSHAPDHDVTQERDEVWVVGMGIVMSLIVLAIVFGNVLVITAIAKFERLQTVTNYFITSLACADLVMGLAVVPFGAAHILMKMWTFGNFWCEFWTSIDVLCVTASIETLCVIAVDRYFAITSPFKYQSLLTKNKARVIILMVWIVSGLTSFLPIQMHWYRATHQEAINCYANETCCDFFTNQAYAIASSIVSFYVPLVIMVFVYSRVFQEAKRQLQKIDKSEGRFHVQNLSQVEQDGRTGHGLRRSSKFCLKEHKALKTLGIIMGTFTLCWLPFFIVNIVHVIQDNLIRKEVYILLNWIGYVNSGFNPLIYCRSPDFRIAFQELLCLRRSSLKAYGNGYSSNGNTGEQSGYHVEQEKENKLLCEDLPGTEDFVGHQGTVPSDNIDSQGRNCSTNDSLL
Sequence of Voltage-gated inwardly rectifying potassium channel KCNH2 (Q12809 whole entry): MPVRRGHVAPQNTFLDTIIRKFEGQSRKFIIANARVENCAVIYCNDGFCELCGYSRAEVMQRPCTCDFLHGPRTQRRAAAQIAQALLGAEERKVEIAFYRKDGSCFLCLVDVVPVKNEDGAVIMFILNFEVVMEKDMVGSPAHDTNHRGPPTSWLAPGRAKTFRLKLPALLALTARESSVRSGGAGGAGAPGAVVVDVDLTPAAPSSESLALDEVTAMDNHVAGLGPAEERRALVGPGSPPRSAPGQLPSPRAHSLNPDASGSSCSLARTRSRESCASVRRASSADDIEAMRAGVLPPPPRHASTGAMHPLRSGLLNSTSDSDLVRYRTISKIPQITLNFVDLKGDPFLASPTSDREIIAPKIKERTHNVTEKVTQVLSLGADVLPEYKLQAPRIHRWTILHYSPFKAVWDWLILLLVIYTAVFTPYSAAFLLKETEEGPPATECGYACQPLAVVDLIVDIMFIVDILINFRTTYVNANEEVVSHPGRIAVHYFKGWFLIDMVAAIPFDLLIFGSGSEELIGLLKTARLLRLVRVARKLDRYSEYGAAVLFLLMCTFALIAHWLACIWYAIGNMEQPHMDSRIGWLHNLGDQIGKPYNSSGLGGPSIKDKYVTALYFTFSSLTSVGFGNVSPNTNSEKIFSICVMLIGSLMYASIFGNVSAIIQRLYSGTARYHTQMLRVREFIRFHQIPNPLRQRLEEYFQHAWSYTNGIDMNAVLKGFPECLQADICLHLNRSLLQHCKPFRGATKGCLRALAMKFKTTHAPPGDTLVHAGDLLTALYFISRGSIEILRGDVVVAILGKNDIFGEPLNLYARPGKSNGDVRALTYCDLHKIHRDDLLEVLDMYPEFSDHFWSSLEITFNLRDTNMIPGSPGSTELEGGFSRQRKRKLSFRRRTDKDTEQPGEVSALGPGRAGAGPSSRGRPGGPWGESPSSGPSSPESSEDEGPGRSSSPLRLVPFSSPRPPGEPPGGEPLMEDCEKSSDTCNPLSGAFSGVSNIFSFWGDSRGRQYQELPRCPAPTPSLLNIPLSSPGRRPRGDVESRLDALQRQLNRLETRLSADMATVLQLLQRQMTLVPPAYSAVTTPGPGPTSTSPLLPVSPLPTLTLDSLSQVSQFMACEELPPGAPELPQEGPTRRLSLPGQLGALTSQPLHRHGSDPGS
Sequence of Cytochrome P450 2C9 (P11712 whole entry): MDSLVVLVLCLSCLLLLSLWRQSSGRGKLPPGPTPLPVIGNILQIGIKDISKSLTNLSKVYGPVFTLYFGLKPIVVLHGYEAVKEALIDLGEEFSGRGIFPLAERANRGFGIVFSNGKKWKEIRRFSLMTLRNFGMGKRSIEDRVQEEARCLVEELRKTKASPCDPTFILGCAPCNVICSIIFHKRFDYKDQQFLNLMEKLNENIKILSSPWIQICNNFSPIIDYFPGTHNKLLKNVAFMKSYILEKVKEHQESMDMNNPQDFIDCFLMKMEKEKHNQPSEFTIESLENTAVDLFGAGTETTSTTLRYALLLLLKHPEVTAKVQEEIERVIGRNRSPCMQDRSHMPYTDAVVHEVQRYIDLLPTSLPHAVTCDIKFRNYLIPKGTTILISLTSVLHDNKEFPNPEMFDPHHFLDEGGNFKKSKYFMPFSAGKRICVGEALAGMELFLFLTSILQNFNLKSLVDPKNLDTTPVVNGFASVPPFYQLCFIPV

| SMILES | Emax [1] [%] | EC50 [2] [nM] | EC50 [3] [nM] | Papp A→B (MDR1) [×10⁻⁶ cm/s] | microsomal CLint (in vitro) [µL/min/mg] | logD (physchem) | Emax [4] [%] | further results |
| --- | --- | --- | --- | --- | --- | --- | --- | --- |
| c1ccc(Cn2cc3c(n2)CCNCC3)cc1 | 65 | 4980 | > 10000 | 27 | < 7 | 0.1 |  |  |
| O=c1cc2c(nn1Cc1cccc(Cl)c1)CCNCC2 | 70 | 30 | 81 | 32 | < 7 | 1.1 | 73 |  |
| N#Cc1ccc(Cn2nc3c(cc2=O)CCNCC3)cc1 | 51 | 6630 |  | 11 | < 7 | -0.1 |  | Emax [5]: 42% |
| O=c1cc2c(nn1Cc1ccc(OC(F)(F)F)cc1)CCNCC2 | 66 | 48 | > 10000 |  | < 7 | 1.5 | 58 |  |
| O=c1cc2c(nn1Cc1ccccc1OC(F)(F)F)CCNCC2 | 57 | 107 | 142 |  | < 7 | 1.2 | 86 |  |
| O=c1cc2c(nn1Cc1ccc(C(F)(F)F)cc1)CCNCC2 | 47 | 125 | 473 |  | 10 | 1.1 | 59 |  |
| Cn1nc2c(cc1=O)CCNCC2 | 52 | 338 |  |  |  |  |  | Emax [5]: 32% |
| CC(C)CCn1nc2c(cc1=O)CCNCC2 | 77 | 62 |  |  | < 7 | 0.6 |  | Emax [5]: 65% |
| c1ccc(COc2n[nH]c3c2CCNCC3)cc1 |  | 176 | 353 | 24 | < 7 | 0.5 | 56 |  |
| Cc1nc2c3c(nc(Cc4ccccc4)n2n1)CCNCC3 |  |  |  |  |  |  |  | EC50 [6]: 1800 nM; Ki [7]: > 22000 nM; Ki [8]: 3700 nM; Ki [9]: 7600 nM; Ki [10]: 8200 nM; inhibition (INH) (Cytochrome P450 2D6): < 10%; inhibition (INH) (Cytochrome P450 3A4): < 10%; inhibition (INH) (Cytochrome P450 2C9): < 10%; inhibition (INH) (Cytochrome P450 1A2): < 10%; Efficacy (Canis familiaris): 20%; concentration at 1 h [11]: 89 nM; Emax [12]: 40% |
| Cn1c2c(c(=O)n1Cc1ccccc1)CCNCC2 |  | 2930 | > 10000 | 13 | < 7 | 0 |  |  |
| O=c1cc2c(nn1Cc1ccc(C3CC3)cc1)CCNCC2 | 51 | 26 | 84 |  | < 7 | 1.4 | 34 |  |
| O=c1cc2c(nn1CCOc1ccccc1)CCNCC2 |  | > 10000 | > 10000 |  | < 7 | 0.4 |  |  |
| Cc1nnc2c3c(nc(Cc4ccccc4)n12)CCNCC3 |  |  |  |  |  |  |  | EC50 [6]: 1600 nM; Emax [12]: 36% |
| Clc1cccc(N2CCNCC2)c1 | 71 |  |  |  |  |  | 35 |  |
| O=c1cc2c(nn1Cc1ccccc1)CCNCC2 | 79 | 31 | 358 | 25 | < 7 | 0.3 | 48 | Ratio EC50 (Homo sapiens): 10 |
| O=c1cc2c(nn1-c1ccccc1)CCNCC2 |  | > 10000 | > 10000 |  |  | -0.3 |  |  |
| O=c1[nH]n(Cc2ccccc2)c2c1CCNCC2 | 68 | > 10000 | > 10000 |  | < 7 | -0.1 |  |  |
| O=c1cc2c(nn1Cc1ccc(Cl)cc1)CCNCC2 | 40 | 31 | 267 |  | < 7 | 1.1 | 73 |  |
| O=c1c2c([nH]n1Cc1ccccc1)CCNCC2 | 57 | > 10000 | > 10000 | 2 |  | -0.5 |  | CL (Liver microsomes): 13 µL/min/mg |
| O=c1cc2c(nn1Cc1ccccc1Cl)CCNCC2 | 56 | 33 | 94 |  | < 7 | 0.9 | 67 |  |
